# Measured values reported in PubChem BioAssay AID1963863 (Molecular Pharmacology Branch, DTP, NCI, 2024).
# Test system: 931267-113-T-J1-PDC KRAS spheroid with HUVEC/MSC, viability
# Assay: Anticancer human tumor 931267-113-T-J1-PDC patient-derived colon adenocarcinoma cell line growth inhibition [KRAS2]
# Settings: for IC50: curve of first compound; for viability, T/C: stronger effect = lower value
# Method in brief: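 Combination screen of spheroid viability in tumor-cell co-cultures with endothelial (HUVEC) and mesenchymal stem cell stroma. Each agent was tested in half-log dilutions, topping at clinical Cmax or at 10 microM without a known Cmax.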
# [1] = second compound 0.1 µM, first compound 0.000316 µM
# [2] = second compound 0.1 µM, first compound 0.001 µM
# [3] = second compound 0.1 µM, first compound 0.00316 µM
# [4] = second compound 0.1 µM, first compound 0.01 µM
# [5] = second compound 0.1 µM, first compound 0.0316 µM
# [6] = second compound 0.316 µM, first compound 0.000316 µM
# [7] = second compound 0.316 µM, first compound 0.001 µM
# [8] = second compound 0.316 µM, first compound 0.00316 µM
# [9] = second compound 0.316 µM, first compound 0.01 µM
# [10] = second compound 0.316 µM, first compound 0.0316 µM
# [11] = second compound 1 µM, first compound 0.000316 µM
# [12] = second compound 1 µM, first compound 0.001 µM
# [13] = second compound 1 µM, first compound 0.00316 µM
# [14] = second compound 1 µM, first compound 0.01 µM
# [15] = second compound 1 µM, first compound 0.0316 µM
# [16] = second compound 3.16 µM, first compound 0.000316 µM
# [17] = second compound 3.16 µM, first compound 0.001 µM
# [18] = second compound 3.16 µM, first compound 0.00316 µM
# [19] = second compound 3.16 µM, first compound 0.01 µM
# [20] = second compound 3.16 µM, first compound 0.0316 µM
# [21] = second compound 10 µM, first compound 0.000316 µM
# [22] = second compound 10 µM, first compound 0.001 µM
# [23] = second compound 10 µM, first compound 0.00316 µM
# [24] = second compound 10 µM, first compound 0.01 µM
# [25] = second compound 10 µM, first compound 0.0316 µM
# [26] = second compound 0.1 µM, first compound 0.1 µM
# [27] = second compound 0.316 µM, first compound 0.1 µM
# [28] = second compound 1 µM, first compound 0.1 µM
# [29] = second compound 3.16 µM, first compound 0.1 µM
# [30] = second compound 10 µM, first compound 0.1 µM
# [31] = second compound 0.1 µM, first compound 0.316 µM
# [32] = second compound 0.1 µM, first compound 1 µM
# [33] = second compound 0.1 µM, first compound 3.16 µM
# [34] = second compound 0.1 µM, first compound 10 µM
# [35] = second compound 0.316 µM, first compound 0.316 µM
# [36] = second compound 0.316 µM, first compound 1 µM
# [37] = second compound 0.316 µM, first compound 3.16 µM
# [38] = second compound 0.316 µM, first compound 10 µM
# [39] = second compound 1 µM, first compound 0.316 µM
# [40] = second compound 1 µM, first compound 1 µM
# [41] = second compound 1 µM, first compound 3.16 µM
# [42] = second compound 1 µM, first compound 10 µM
# [43] = second compound 3.16 µM, first compound 0.316 µM
# [44] = second compound 3.16 µM, first compound 1 µM
# [45] = second compound 3.16 µM, first compound 3.16 µM
# [46] = second compound 3.16 µM, first compound 10 µM
# [47] = second compound 10 µM, first compound 0.316 µM
# [48] = second compound 10 µM, first compound 1 µM
# [49] = second compound 10 µM, first compound 3.16 µM
# [50] = second compound 10 µM, first compound 10 µM
# 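Further: compound exposure lasted 7 days before the readout.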
# 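Wherever viability, T/C is given: 100% = DMSO vehicle control viability.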
smiles,measurement,setting,value
CC(=O)Nc1cccc(-n2c(=O)n(C3CC3)c(=O)c3c(Nc4ccc(I)cc4F)n(C)c(=O)c(C)c32)c1 + CNCc1ccccc1-c1csc(C(C)Nc2nc(C)nc3cc(OC)c(OC)cc23)c1,IC50,second compound 0.1 µM,9.09 nM
same,IC50,second compound 0.316 µM,6.7 nM
same,IC50,second compound 1 µM,< 0.1 nM
same,IC50,second compound 3.16 µM,< 0.1 nM
same,IC50,second compound 10 µM,< 0.1 nM
same,"viability, T/C","second compound 0.1 µM, first compound 0.0001 µM",86.5%
same,"viability, T/C",[1],89.1%
same,"viability, T/C",[2],75.8%
same,"viability, T/C",[3],59.7%
same,"viability, T/C",[4],56%
same,"viability, T/C",[5],14.1%
same,"viability, T/C","second compound 0.316 µM, first compound 0.0001 µM",91.8%
same,"viability, T/C",[6],111%
same,"viability, T/C",[7],83.3%
same,"viability, T/C",[8],60.8%
same,"viability, T/C",[9],47.8%
same,"viability, T/C",[10],25.3%
same,"viability, T/C","second compound 1 µM, first compound 0.0001 µM",50.4%
same,"viability, T/C",[11],17%
same,"viability, T/C",[12],1.23%
same,"viability, T/C",[13],10.3%
same,"viability, T/C",[14],2.02%
same,"viability, T/C",[15],1.26%
same,"viability, T/C","second compound 3.16 µM, first compound 0.0001 µM",1.06%
same,"viability, T/C",[16],0.32%
same,"viability, T/C",[17],0.34%
same,"viability, T/C",[18],0.19%
same,"viability, T/C",[19],0.19%
same,"viability, T/C",[20],0.41%
same,"viability, T/C","second compound 10 µM, first compound 0.0001 µM",0.57%
same,"viability, T/C",[21],0.16%
same,"viability, T/C",[22],0.14%
same,"viability, T/C",[23],0.13%
same,"viability, T/C",[24],0.15%
same,"viability, T/C",[25],2.55%
CN(C)C/C=C/C(=O)Nc1cc2c(Nc3ccc(F)c(Cl)c3)ncnc2cc1O[C@H]1CCOC1 + CNCc1ccccc1-c1csc(C(C)Nc2nc(C)nc3cc(OC)c(OC)cc23)c1,IC50,second compound 0.1 µM,> 100 nM
same,IC50,second compound 0.316 µM,> 100 nM
same,IC50,second compound 1 µM,0.489 nM
same,IC50,second compound 3.16 µM,2.02 nM
same,IC50,second compound 10 µM,< 0.316 nM
same,"viability, T/C",[1],88%
same,"viability, T/C",[2],80.3%
same,"viability, T/C",[3],90.3%
same,"viability, T/C",[4],97.7%
same,"viability, T/C",[5],78%
same,"viability, T/C",[26],88%
same,"viability, T/C",[6],114%
same,"viability, T/C",[7],104%
same,"viability, T/C",[8],106%
same,"viability, T/C",[9],76.7%
same,"viability, T/C",[10],78.4%
same,"viability, T/C",[27],79.8%
same,"viability, T/C",[11],69.9%
same,"viability, T/C",[12],12.7%
same,"viability, T/C",[13],16.5%
same,"viability, T/C",[14],21.8%
same,"viability, T/C",[15],33.7%
same,"viability, T/C",[28],1.43%
same,"viability, T/C",[16],94.4%
same,"viability, T/C",[17],108%
same,"viability, T/C",[18],0.36%
same,"viability, T/C",[19],0.29%
same,"viability, T/C",[20],68.5%
same,"viability, T/C",[29],0.32%
same,"viability, T/C",[21],0.23%
same,"viability, T/C",[22],0.22%
same,"viability, T/C",[23],0.24%
same,"viability, T/C",[24],0.45%
same,"viability, T/C",[25],0.17%
same,"viability, T/C",[30],0.22%
COC(=O)c1ccc2c(C(=Nc3ccc(N(C)C(=O)CN4CCN(C)CC4)cc3)c3ccccc3)c(O)[nH]c2c1 + CNCc1ccccc1-c1csc(C(C)Nc2nc(C)nc3cc(OC)c(OC)cc23)c1,IC50,second compound 0.1 µM,480 nM
same,IC50,second compound 0.316 µM,356 nM
same,IC50,second compound 1 µM,452 nM
same,IC50,second compound 3.16 µM,< 31.6 nM
same,IC50,second compound 10 µM,< 31.6 nM
same,"viability, T/C",[5],65.7%
same,"viability, T/C",[26],81%
same,"viability, T/C",[31],58%
same,"viability, T/C",[32],31%
same,"viability, T/C",[33],0.36%
same,"viability, T/C",[34],0.19%
same,"viability, T/C",[10],76.5%
same,"viability, T/C",[27],86.1%
same,"viability, T/C",[35],55.6%
same,"viability, T/C",[36],2.09%
same,"viability, T/C",[37],0.23%
same,"viability, T/C",[38],0.33%
same,"viability, T/C",[15],84.5%
same,"viability, T/C",[28],99.3%
same,"viability, T/C",[39],72%
same,"viability, T/C",[40],2.29%
same,"viability, T/C",[41],0.7%
same,"viability, T/C",[42],0.32%
same,"viability, T/C",[20],0.3%
same,"viability, T/C",[29],0.33%
same,"viability, T/C",[43],0.17%
same,"viability, T/C",[44],0.16%
same,"viability, T/C",[45],0.15%
same,"viability, T/C",[46],0.2%
same,"viability, T/C",[25],0.24%
same,"viability, T/C",[30],0.28%
same,"viability, T/C",[47],0.13%
same,"viability, T/C",[48],0.12%
same,"viability, T/C",[49],0.14%
same,"viability, T/C",[50],0.29%
O=C(c1cc(Cc2n[nH]c(=O)c3ccccc23)ccc1F)N1CCN(C(=O)C2CC2)CC1 + CNCc1ccccc1-c1csc(C(C)Nc2nc(C)nc3cc(OC)c(OC)cc23)c1,IC50,second compound 0.1 µM,> 10000 nM
same,IC50,second compound 0.316 µM,> 10000 nM
same,IC50,second compound 1 µM,> 10000 nM
same,IC50,second compound 3.16 µM,< 31.6 nM
same,IC50,second compound 10 µM,< 31.6 nM
same,"viability, T/C",[5],98.8%
same,"viability, T/C",[26],100%
same,"viability, T/C",[31],86.8%
same,"viability, T/C",[32],85.9%
same,"viability, T/C",[33],61.9%
same,"viability, T/C",[34],72.2%
same,"viability, T/C",[10],106%
same,"viability, T/C",[27],88.5%
same,"viability, T/C",[35],98%
same,"viability, T/C",[36],88.5%
same,"viability, T/C",[37],82.7%
same,"viability, T/C",[38],80%
same,"viability, T/C",[15],114%
same,"viability, T/C",[28],113%
same,"viability, T/C",[39],108%
same,"viability, T/C",[40],96.6%
same,"viability, T/C",[41],112%
same,"viability, T/C",[42],75.6%
same,"viability, T/C",[20],0.55%
same,"viability, T/C",[29],0.34%
same,"viability, T/C",[43],0.4%
same,"viability, T/C",[44],0.47%
same,"viability, T/C",[45],0.43%
same,"viability, T/C",[46],0.38%
same,"viability, T/C",[25],0.16%
same,"viability, T/C",[30],0.2%
same,"viability, T/C",[47],0.21%
same,"viability, T/C",[48],0.61%
same,"viability, T/C",[49],0.27%
same,"viability, T/C",[50],0.23%
